Assay results: US20070142462A1, “Method of Treating Cancer” (The University of Utah, priority 2000, published 2007)

Assays:
[1] = test system: p65 component of NF-κB; test: Immunohistochemical localization of p65 in M1619 cells; assay type: cell-based, human; details: 24 hours, catalase 3,000 U/ml, apocynin 150 μg/ml, dicumarol 250 μM
Experimental: The effect of antioxidants on nuclear activation of NF-κB was studied by incubating near confluent (70%) cell cultures with antioxidant treatments for 1-48 hours. Nuclear protein was harvested, and EMSAs were performed using DNA consensus binding sequences, or nuclear translocation of the p65 component of NF-κB was studied by immunoperoxidase staining, as outlined below.
Immunohistochemical Localization of NF-κB. Cells grown on sterile coverslips and treated with catalase 3,000 U/ml, apocynin 150 μg/ml, or DPBS or DMSO vehicles for 24 h were fixed for 20 min on ice with 4% paraformaldehyde in DPBS with protease inhibitors, PI [Sigma protease inhibitor cocktail, 10 μl/ml, containing 4-(2-aminoethyl)benzensulfonyl fluoride (AEBSF), pepstatin A, trans-epoxysuccinyl-L-leucylamindo-(guanidino)butane (E-64), bestatin, leupeptin and aprotinin]. Cells were permeabilized by treating for 2 min with 0.1% NP-40 in DPBS/PI, washed once with cold DPBS and fixed as before for 10 min. Coverslips were incubated in 3% hydrogen peroxide for 30 min to suppress any remaining peroxidase, and washed three times in cold DPBS. The permeabilized and fixed cells were blocked for 2 hours with 2% BSA in DPBS on ice and incubated overnight at 4° C. with 1 μg/ml of anti-p65 antibody (Santa Cruz) diluted in 0.1% BSA/DPBS. Unbound anti-p65 was washed away with 2% BSA/DPBS and bound antibody was stained by incubation with biotinylated goat anti-rabbit immunoglobulin diluted 1:50 in 0.1% BSA/DPBS for 45 min on ice. Excess secondary antibody was washed away by 3 washes with 2% BSA/DPBS on ice. After washing, the cells were incubated with a streptavidin-biotin-peroxidase complex at room temperature for 1 hr, washed again, and incubated in 0.03% wt/vol 3-3′diaminobenzidine with 0.003% vol/vol hydrogen peroxide until a brown reaction product could be seen. Cells were then counterstained with eosin and mounted on glass slides before viewing under light microscopy. […]

[2] = test system: M1619 melanoma cells; test: MTT proliferation assay, M1619 melanoma; assay type: cell-based, human
Experimental: Measurement of Proliferation in Cell Cultures. Proliferation of cultured cells was quantitated using a previously reported calorimetric method based upon metabolic reduction of the soluble yellow tetrazolium dye 3-[4,5-dimethylthiazol]-2yl-2,5-diphenyl tetrazolium bromide (MTT) to its insoluble purple formazan by the action of mitochondrial succinyl dehydrogenase. […] This assay empirically distinguishes between dead and living cells. For proliferation studies, cells were seeded into 24-well uncoated plastic plates (Costar) at 15,000-50,000 cells per well and cultured with respective media and mitogens. After 24-96 hours, medium was removed, cells were washed twice with 1 ml of sterile Dulbecco's modified phosphate buffered saline without Ca^2+ or Mg^2+ (DPBS), the medium was replaced with 1 ml/well fresh medium containing 100 μg/ml MTT, and plates were incubated an additional hour. MTT-containing medium was removed, 0.5 ml dimethylsulfoxide (DMSO) was added to each well, and the absorbance of the solubilized purple formazan dye was measured at 540 nm. A total of 4-6 wells was studied at each treatment condition. Preliminary studies were performed with 50-200 μg/ml MTT incubated for 15 min to 3 hours to determine the optimum concentration and incubation time at which the rate of conversion was linear and proportional to the number of cells present.
(§1) Cell Culture Treatments. The effect of antioxidant treatments on proliferation of malignant cell lines was studied in cultures stimulated with 10% FBS. Cell numbers were quantitated by the MTT assay 24-72 hours later. In some experiments, antioxidants were added immediately after cells were plated. In other experiments, cells were plated and allowed to grow for 24 hours before fresh media with antioxidants was added, and cell numbers were studied by the MTT assay 48 hours later.
A. M1619 melanoma cells stimulated with 10% fetal bovine serum (FBS) were plated at a density of 50,000 cells per well and antioxidants were added to wells at the indicated concentrations (mM or U/ml). After 48 hours, proliferation was quantitated by assessing the cell number-dependent reduction of the soluble yellow tetrazolium dye 3-[4,5-dimethylthiazol]-2yl-2,5-diphenyl tetrazolium bromide (MTT) to its insoluble formazan, measured as the absorbance at 540 nm (A540). The antioxidants tested included no antioxidant (control, i.e., FBS alone), 1000 U/ml SOD, 20 mM NAC, 500 U/ml, 1000 U/ml, and 3000 U/ml of catalase, and boiled […] catalase.
B. In a separate experiment, 2 μl/well of DMSO (served as control), 5 μM, 10 μM, and 25 μM Ebselen were tested on M1619 melanoma cells as described above, except that the cells were cultured for 72 hours before proliferation was measured.
C. 3000 U/ml Catalase, 2 μl/well DMSO, 25 μM Ebselen, and 50 μM Ebselen were tested as described above except that the compounds were added 24 hours after M1619 cells were plated. After the addition of antioxidants, the cells were incubated for an additional 48 hours and cell proliferation was quantitated. […]

[3] = test system: Adeno-squamous lung carcinoma NCI-H596 cells; test: MTT proliferation assay, NCI-H596 lung carcinoma; assay type: cell-based, human; details: Catalase 3000 U/ml; 10% FBS; 48 hours; mean±SE vs control
Experimental: (§2) Measurement of Proliferation in Cell Cultures. […] This assay empirically distinguishes between dead and living cells.
as §1
(§3) Cells stimulated with 10% FBS were plated at a density of 50,000 cells per well. DMSO and antioxidants were added to cell wells at the indicated concentrations. […] Each value represents a mean of at least 4 experiments.

[4] = test system: M1619 cells; test: Cytotoxicity by trypan blue; assay type: cell-based; details: catalase treatment; 24 hours
Experimental: Measurement of Cytotoxicity and Apoptosis. To assess for cytotoxicity, near confluent cells cultured in 24 well plates were exposed to antioxidants or withdrawn from serum for 24 hours. Medium was removed, and replaced with Dulbecco=s phosphate buffered saline (DPBS) containing 0.1% trypan blue. […] To assess for apoptosis, cells grown on glass slides were treated with antioxidants for 24 hours. Apoptosis was studied by terminal deoxynucleotidyl transferase (TdT) dependent 3′BOH fluorescein end-labeling of DNA fragments, using a Fluorescein-FragEL™ DNA fragmentation detection kit (Oncogene Research Products, Cambridge, Mass.). DNase-treated fixed cells were used as a positive control.

[5] = test system: Melanoma M1585 cells; test: MTT proliferation assay, M1585 melanoma; assay type: cell-based, human; details: Catalase 3000 U/ml; 10% FBS; 48 hours; mean±SE vs control
Experimental: as §2, §1, §3

[6] = test system: breast carcinoma MDA-MB-453 cells; test: MTT proliferation assay, MDA-MB-453 breast carcinoma; assay type: cell-based, human; details: Catalase 3000 U/ml; 10% FBS; 72 hours; mean±SE vs control
Experimental: as §2, §1, §3

[7] = test system: LNCaP.FGC prostate adenocarcinoma cells; test: MTT proliferation assay, LNCaP.FGC prostate adenocarcinoma; assay type: cell-based, human; details: Catalase 3000 U/ml; 10% FBS; 48 hours; mean±SE vs control
Experimental: as §2, §1, §3

Catalase
anti-p65 staining in nuclei (nuclear translocation of NF-κB) [1]: little staining in nuclei
Proliferation of M1619 melanoma cells (MTT, A540) ([2]; 10% FBS, agents added at plating, 48 hours (ebselen 72 hours)): reduced proliferation
Proliferation of M1619 melanoma cells, agents added 24 hours after plating ([2]; catalase 3000 U/ml, Ebselen 25 and 50 μM, further 48 hours): antiproliferative
Percent Growth Inhibition [3]: 69 ± 4
trypan blue dye exclusion [4]: significantly increased
Percent Growth Inhibition [5]: 80 ± 1
Percent Growth Inhibition [6]: 49 ± 2
Percent Growth Inhibition [7]: 43 ± 7
